Reference: patent publication US11253634B2, “Cationic steroidal antibiotic compositions for the treatment of dermal tissue” (BRIGHAM YOUNG UNIVERSITY, priority 2016, dated 2022)
In brackets after ≈: the same amount, converted by molar mass. Each block holds one compound with its values, some of them ahead of it.

Experiments:
Pseudomonas aeruginosa = assay: MIC/MBC against mixed-species biofilms: P. aeruginosa; type: cell-based; settings: mixed-species biofilms grown 22 hours, 20 hours of treatment
Method: (§1) Several CSA compounds were tested against Pseudomonas aeruginosa and Staphylococcus aureus mixed-species biofilms grown for an initial 22 hours and subjected to 20 hours of treatment.

Staphylococcus aureus = assay: MIC/MBC against mixed-species biofilms: S. aureus; type: cell-based; settings: mixed-species biofilms grown 22 hours, 20 hours of treatment
Method: as §1

IL-6 = assay: Kidney IL-6 levels in P. aeruginosa pneumonia model; type: in vivo, C57/BL6 mice; settings: 24 hours post-infection
Text: IL-6 is a marker of systemic inflammation. Female C57/BL6 mice were infected in the respiratory tract with a non-lethal dose of P. aeruginosa as a model of pneumonia.

primary human MSC cells = assay: Gene expression (q-PCR, inflammation-related mRNA panel) after CSA treatment of primary cells; type: cell-based; settings: 8 hours treatment, CSA-13 at 5.0 μM; for Fold Regulation, IL1A: gene IL1A (Interleukin-1 alpha); for Fold Regulation, IL1A / Fold Regulation, IL1B / Fold Regulation, IRAK2 / Fold Regulation, NFKBIA / Fold Regulation, TLR2 / Fold Regulation, TLR4 / Fold Regulation, TLR6 / Fold Regulation, TLR8 / Fold Regulation, TLR9 / Fold Regulation, TNF / Fold Regulation, TNFRSF1A: q-PCR; for Fold Regulation, IL1B: gene IL1B (Interleukin-1 beta); for Fold Regulation, IRAK2: gene IRAK2 (Interleukin-1 receptor-associated kinase 2); for Fold Regulation, NFKB1: gene NFKB1, q-PCR; for Fold Regulation, NFKB2: gene NFKB2, q-PCR; for Fold Regulation, NFKBIA: gene NFKBIA; for Fold Regulation, TLR2: gene TLR2 (Toll-like receptor 2); for Fold Regulation, TLR4: gene TLR4 (Toll-like receptor 4); for Fold Regulation, TLR6: gene TLR6 (Toll-like receptor 6); for Fold Regulation, TLR8: gene TLR8 (Toll-like receptor 8); for Fold Regulation, TLR9: gene TLR9 (Toll-like receptor 9); for Fold Regulation, TNF: gene TNF (Tumor necrosis factor); for Fold Regulation, TNFRSF1A: gene TNFRSF1A
[1] = Solubility of CSA-131 salt in cyanoacrylate; type: physicochemical
Method: CSA-131 (bis-DNS salt) was used in this Example. This material is a stable, colorless solid and is insoluble in cyanoacrylate. To ensure uniform distribution of CSA-131 in the cyanoacrylate polymer, the solid was micronized using a jet mill to give an average particle size of 200 nm. The resulting powder was added to cyanoacrylate to give a 5% (w/w) mixture, which was vigorously agitated. No immediate change in viscosity was observed, and the mixture remained non-viscous for more than 15 min.

[2] = tested on: Staphylococcus aureus (10); assay: Broth microdilution susceptibility testing, S. aureus isolates; type: cell-based; settings: unit inferred, unit assumed
Method: (§2) CSA-131 was tested in vitro against a set of clinical isolates representing bacterial species commonly associated with hospital-acquired infections. Antimicrobial susceptibility testing for 74 clinical isolates was performed.

Non-fermenters (22) = assay: Broth microdilution susceptibility testing, non-fermenter isolates; type: cell-based, A. baumannii species complex, P. aeruginosa, S. maltophilia; settings: unit inferred, unit assumed
Method: as §2

[3] = tested on: 74 clinical isolates (All); assay: Broth microdilution susceptibility testing, all clinical isolates; type: cell-based; settings: All (74) isolates; no unit in column head (MIC levels of table in μg/ml)
Method: as §2

[4] = tested on: Streptococcus Pneumoniae (10); assay: Broth microdilution susceptibility testing, S. pneumoniae isolates; type: cell-based; settings: unit inferred, unit assumed
Method: as §2

Enterobacteriaceae (22) = assay: Broth microdilution susceptibility testing, Enterobacteriaceae isolates; type: cell-based; settings: unit inferred, unit assumed
Method: as §2

Haemophilus spp. (10) = assay: Broth microdilution susceptibility testing, Haemophilus spp. isolates; type: cell-based, H. influenza and H. parainfluenzae; settings: unit inferred, unit assumed
Method: as §2

MIC P. aeruginosa (Pseudomonas aeruginosa): 3.125 µg/mL (≈ 4.18 µM)
MIC S. aureus (Staphylococcus aureus): 1.56 µg/mL (≈ 2.09 µM)
SMILES: CCCCCCCCCCCCCNCCC[C@@H](C)[C@H]1CC[C@H]2[C@@H]3[C@H](OCCCN)C[C@@H]4C[C@H](OCCCN)CC[C@]4(C)[C@H]3C[C@H](OCCCN)[C@]12C [CSA-138]
MBC P. aeruginosa (Pseudomonas aeruginosa): 6.25 µg/mL (≈ 8.36 µM)
MBC S. aureus (Staphylococcus aureus): 3.125 µg/mL (≈ 4.18 µM)

MIC P. aeruginosa (Pseudomonas aeruginosa): 12.5 µg/mL (≈ 16.4 µM)
MIC S. aureus (Staphylococcus aureus): 3.125 µg/mL (≈ 4.1 µM)
SMILES: CCCCCCCCCCOC(=O)CC[C@@H](C)[C@H]1CC[C@H]2[C@@H]3[C@H](OC(=O)CCN)C[C@@H]4C[C@H](OC(=O)CCN)CC[C@]4(C)[C@H]3C[C@H](OC(=O)CCN)[C@]12C [CSA-144]
MBC P. aeruginosa (Pseudomonas aeruginosa): 50 µg/mL (≈ 65.6 µM)
MBC S. aureus (Staphylococcus aureus): 3.125 µg/mL (≈ 4.1 µM)

MIC P. aeruginosa (Pseudomonas aeruginosa): 12.5 µg/mL (≈ 16.7 µM)
MIC S. aureus (Staphylococcus aureus): 3.125 µg/mL (≈ 4.18 µM)
SMILES: CCCCCCCCCOC(=O)CC[C@@H](C)[C@H]1CC[C@H]2[C@@H]3[C@H](OC(=O)CCN)C[C@@H]4C[C@H](OC(=O)CCN)CC[C@]4(C)[C@H]3C[C@H](OC(=O)CCN)[C@]12C [CSA-145]
MBC P. aeruginosa (Pseudomonas aeruginosa): 50 µg/mL (≈ 66.8 µM)
MBC S. aureus (Staphylococcus aureus): 3.125 µg/mL (≈ 4.18 µM)

More lines, now with the values behind:

SMILES: CC(CCCO)C1CCC2C3C(OCCCN)CC4CC(OCCCN)CCC4(C)C3CC(OCCCN)C12C.Cl.Cl.Cl (centres unmarked) [CSA-8]
MBC P. aeruginosa (Pseudomonas aeruginosa): 100 µg/mL
MIC P. aeruginosa (Pseudomonas aeruginosa): 25 µg/mL
MBC S. aureus (Staphylococcus aureus): 6.25 µg/mL
MIC S. aureus (Staphylococcus aureus): 3.125 µg/mL

SMILES: CC(O)C1CCC2C3C(OCCCN)CC4CC(OCCCN)CCC4(C)C3CC(OCCCN)C12C.Cl.Cl.Cl (centres unmarked) [CSA-11]
MBC P. aeruginosa (Pseudomonas aeruginosa): >200 µg/mL
MIC P. aeruginosa (Pseudomonas aeruginosa): >200 µg/mL
MBC S. aureus (Staphylococcus aureus): 50 µg/mL
MIC S. aureus (Staphylococcus aureus): 50 µg/mL

SMILES: CCCCCCCCNCCC[C@@H](C)[C@H]1CC[C@H]2[C@@H]3[C@H](OCCCN)C[C@@H]4C[C@H](OCCCN)CC[C@]4(C)[C@H]3C[C@H](OCCCN)[C@]12C [CSA-13]
Effect of treatment on kidney IL-6 levels (IL-6): significantly reduced

SMILES: CCCCCCCCOC(=O)CC[C@@H](C)[C@H]1CC[C@H]2[C@@H]3[C@H](OC(=O)CCN)C[C@@H]4C[C@H](OC(=O)CCN)CC[C@]4(C)[C@H]3C[C@H](OC(=O)CCN)[C@]12C [CSA-44]
Fold Regulation, IL1A (primary human MSC cells): −6.0325 fold
Fold Regulation, IL1B (primary human MSC cells): −28.5329 fold
Fold Regulation, IRAK2 (primary human MSC cells): −31.8021 fold
Fold Regulation, NFKB1 (primary human MSC cells): −3.2891 fold
Fold Regulation, NFKB2 (primary human MSC cells): −2.2766 fold
Fold Regulation, NFKBIA (primary human MSC cells): −52.206 fold
Fold Regulation, TLR2 (primary human MSC cells): −15.7179 fold
Fold Regulation, TLR4 (primary human MSC cells): −2.977 fold
Fold Regulation, TLR6 (primary human MSC cells): −2.392 fold
Fold Regulation, TLR8 (primary human MSC cells): −8.2256 fold
Fold Regulation, TLR9 (primary human MSC cells): −1.8905 fold
Fold Regulation, TNF (primary human MSC cells): −25.9588 fold
Fold Regulation, TNFRSF1A (primary human MSC cells): −2.2461 fold

SMILES: CC(CCCNCCCNCCCN)C1CCC2C3C(OCCCN)CC4CC(OCCCN)CCC4(C)C3CC(OCCCN)C12C.Cl.Cl.Cl.Cl.Cl.Cl (centres unmarked) [CSA-54]
MBC P. aeruginosa (Pseudomonas aeruginosa): 100 µg/mL
MIC P. aeruginosa (Pseudomonas aeruginosa): 50 µg/mL
MBC S. aureus (Staphylococcus aureus): 25 µg/mL
MIC S. aureus (Staphylococcus aureus): 6.25 µg/mL

SMILES: CCCCCN(CCCCC)CCCC(C)C1CCC2C3C(OCCCN)CC4CC(OCCCN)CCC4(C)C3CC(OCCCN)C12C.Cl.Cl.Cl.Cl (centres unmarked) [CSA-90]
Fold Regulation, IL1A (primary human MSC cells): −6.96 fold
Fold Regulation, IL1B (primary human MSC cells): −3.6734 fold
Fold Regulation, IRAK2 (primary human MSC cells): −52.0069 fold
Fold Regulation, NFKB1 (primary human MSC cells): −4.718 fold
Fold Regulation, NFKB2 (primary human MSC cells): −2.5474 fold
Fold Regulation, NFKBIA (primary human MSC cells): −26.0352 fold
Fold Regulation, TLR2 (primary human MSC cells): −13.6933 fold
Fold Regulation, TLR4 (primary human MSC cells): −3.4278 fold
Fold Regulation, TLR6 (primary human MSC cells): −2.0885 fold
Fold Regulation, TLR8 (primary human MSC cells): −4.1972 fold
Fold Regulation, TLR9 (primary human MSC cells): −1.8613 fold
Fold Regulation, TNF (primary human MSC cells): −4.8514 fold
Fold Regulation, TNFRSF1A (primary human MSC cells): −7.3196 fold
MBC P. aeruginosa (Pseudomonas aeruginosa): 6.25 µg/mL
MIC P. aeruginosa (Pseudomonas aeruginosa): 6.25 µg/mL
MBC S. aureus (Staphylococcus aureus): 1.56 µg/mL
MIC S. aureus (Staphylococcus aureus): 1.56 µg/mL

SMILES: CCCCCCCCCCCCNCCCC(C)C1CCC2C3C(OCCCN)CC4CC(OCCCN)CCC4(C)C3CC(OCCCN)C12C.O=S(=O)(O)c1cccc2c(S(=O)(=O)O)cccc12.O=S(=O)(O)c1cccc2c(S(=O)(=O)O)cccc12 (centres unmarked) [CSA-131 (bis-DNS salt)]
Solubility in cyanoacrylate [1]: insoluble

SMILES: CCCCCCCCCCCCNCCC[C@@H](C)[C@H]1CC[C@H]2[C@@H]3[C@H](OCCCN)C[C@@H]4C[C@H](OCCCN)CC[C@]4(C)[C@H]3C[C@H](OCCCN)[C@]12C.Cl.Cl.Cl.Cl [CSA-131]
MIC50 [2]: 2 µg/mL
MIC90 [2]: 2 µg/mL
MIC50 (Non-fermenters (22)): 4 µg/mL
MIC90 (Non-fermenters (22)): 4 µg/mL
MIC50 [3]: 4
MIC90 [3]: 8
MIC50 [4]: 4 µg/mL
MIC90 [4]: 4 µg/mL
MIC50 (Enterobacteriaceae (22)): 4 µg/mL
MIC90 (Enterobacteriaceae (22)): 4 µg/mL
MIC50 (Haemophilus spp. (10)): 8 µg/mL
MIC90 (Haemophilus spp. (10)): 8 µg/mL
